The values below are quoted from earlier work in patent publication US20070092573A1, “STABILIZED EXTENDED RELEASE PHARMACEUTICAL COMPOSITIONS COMPRISING A BETA-ADRENORECEPTOR ANTAGONIST” (priority 2005, published 2007).

The structures appear in SMILES notation.

`COCCc1ccc(OCC(O)CNC(C)C)cc1` (stereo not shown) [Metoprolol Succinate]: the water solubility result is recorded as “highly water-soluble”.
